Laboratory results taken from PubChem BioAssay (NCI).
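Compound exposure: 48 hours, 5 concentrations, 96-well plates. Here, GI50 denotes the concentration required for 50% inhibition of growth. TGI: concentration producing complete growth inhibition.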

What was measured:
Assay in all cases: NCI tumour cell line growth inhibition, 48 h
EKVX NSCLC = system: EKVX NSCLC
NCI-H460 lung = system: NCI-H460 lung
SF-539 CNS = system: SF-539 CNS
HT29 colon = system: HT29 colon
SF-295 CNS = system: SF-295 CNS
SN12C renal = system: SN12C renal
SW-620 colon = system: SW-620 colon
HL-60(TB) leukemia = system: HL-60(TB) leukemia
OVCAR-4 ovarian = system: OVCAR-4 ovarian
MCF7 breast = system: MCF7 breast

Row | Structure (SMILES) | TGI (EKVX NSCLC) | TGI (NCI-H460 lung) | TGI (SF-539 CNS) | TGI (HT29 colon) | TGI (SF-295 CNS) | TGI (SN12C renal) | TGI (SW-620 colon) | TGI (HL-60(TB) leukemia) | TGI (OVCAR-4 ovarian) | TGI (MCF7 breast) | GI50 (SF-539 CNS) | GI50 (SF-295 CNS) | GI50 (EKVX NSCLC) | GI50 (NCI-H460 lung) | GI50 (OVCAR-4 ovarian) | GI50 (HT29 colon) | GI50 (SN12C renal) | GI50 (SW-620 colon)
1 | O=CC1=CCC2c3[nH]c4ccccc4c3CCN2C1 (stereo not given) | > 396 µM | > 396 µM | > 396 µM | 273 µM | 326 µM | > 396 µM | > 396 µM | > 396 µM |  |  |  |  |  |  |  |  |  | 
2 | COc1ccc(CC[N+]2(C)COc3cc4oc(=O)cc(C)c4cc3C2)cc1OC (stereo not given) | > 100 µM |  |  | > 100 µM | > 100 µM | > 100 µM | > 100 µM | > 100 µM | > 100 µM | > 100 µM |  |  |  |  |  |  |  | 
3 | C(=C\c1c2oc(-c3ccccc3)cc(-c3ccccc3)c-2c2ccccc12)/C=C1\c2ccccc2-c2c(-c3ccccc3)cc(-c3ccccc3)[o+]c21 | > 100 µM | > 100 µM | > 100 µM | > 100 µM | > 100 µM | > 100 µM | > 100 µM | > 100 µM | > 100 µM |  |  |  |  |  |  |  |  | 
4 | O=C(O)/C=C/c1ccncc1 | > 100 µM | > 100 µM | > 100 µM | > 100 µM | > 100 µM | > 100 µM | > 100 µM | > 100 µM | > 100 µM |  |  |  |  |  |  |  |  | 
5 | COC(=O)C(NC(=O)c1ccccc1)C(c1c(O)cc(O)cc1O)P(=O)(OC)OC (stereo not given) | > 100 µM | > 100 µM | > 100 µM | > 100 µM | > 100 µM | > 100 µM | > 100 µM | > 100 µM | > 100 µM |  |  |  |  |  |  |  |  | 
6 | CCOC(=O)c1csc(NC(=O)C(C)N2CCOCC2)n1 (stereo not given) | > 100 µM | > 100 µM | > 100 µM | > 100 µM | > 100 µM |  | > 100 µM | > 100 µM | > 100 µM | > 100 µM |  |  |  |  |  |  |  | 
7 | Cn1c(NC(=O)NC23CC4CC(CC(C4)C2)C3)nc2ccccc21 | > 100 µM | > 100 µM | > 100 µM | > 100 µM | 52.3 µM | > 100 µM | > 100 µM | > 100 µM | 28.5 µM |  |  |  |  |  |  |  |  | 
8 | COC1OC(C(=O)O)C2OC(C)(C)OC12 (stereo not given) | > 100 µM | > 100 µM | > 100 µM | > 100 µM | > 100 µM | > 100 µM | > 100 µM |  | > 100 µM | > 100 µM |  |  |  |  |  |  |  | 
9 | Cc1cc(Nc2ccc(Cl)cc2)nc(NCCCNc2ccnc3cc(Cl)ccc23)n1 |  |  | 3.13 µM |  | 3.04 µM |  |  |  |  |  | 1650 nM | 1640 nM |  |  |  |  |  | 
10 | Cc1ncc(CSC(=N)N)n1Cc1ccccc1 | > 100 µM | > 100 µM | > 100 µM | > 100 µM | > 100 µM | > 100 µM | > 100 µM |  | > 100 µM | > 100 µM |  |  |  |  |  |  |  | 
11 | COC(=O)CC1CC2(C(=O)OC)c3[nH]c4ccccc4c3CCN2C1=O (stereo not given) | > 100 µM | > 100 µM | > 100 µM | > 100 µM | > 100 µM | > 100 µM | > 100 µM | > 100 µM | > 100 µM |  |  |  |  |  |  |  |  | 
12 | c1cncc([O][Ge]([O]c2cccnc2)([O]c2cccnc2)[O]c2cccnc2)c1 | > 100 µM | > 100 µM | > 100 µM | > 100 µM | > 100 µM | > 100 µM | > 100 µM |  | > 100 µM |  | > 100000 nM | > 100000 nM | > 100 µM | > 100 µM | > 100 µM | > 100 µM | > 100 µM | > 100 µM
13 | Cc1cc(C)n2c(nc3ccccc32)c1C#N | > 100 µM |  | > 100 µM | > 100 µM | > 100 µM | > 100 µM | > 100 µM | > 100 µM | > 100 µM | > 100 µM |  |  |  |  |  |  |  | 
14 | CC(C)(CN1CCCCC1)C(=O)CC(SCCS(=O)(=O)O)c1ccc(Cl)cc1 (stereo not given) | 11.8 µM | 25.2 µM | 4.66 µM | 12.6 µM | 15.8 µM | 15.8 µM | 9.07 µM | 8.13 µM |  | 11.8 µM |  |  |  |  |  |  |  | 
15 | Clc1cc2ncn(C3CCCCO3)c2cc1Cl (stereo not given) | 92.4 µM |  | > 100 µM | > 100 µM | > 100 µM | > 100 µM | > 100 µM | > 100 µM | > 100 µM | > 100 µM |  |  |  |  |  |  |  | 
16 | Cc1nc(Cc2n[nH]c(C)n2)n[nH]1 | > 100 µM |  | > 100 µM | > 100 µM | > 100 µM | > 100 µM | > 100 µM |  | > 100 µM | > 100 µM |  |  |  |  |  |  |  | 
17 | CCOC(=O)c1c(-c2ccccc2)c(C)cn1C | > 10 µM | > 10 µM | > 10 µM | > 10 µM | > 10 µM | > 10 µM |  |  | > 10 µM |  |  |  |  |  |  |  |  | 
